For this assay, the target named is T1, PfHT (Plasmodium falciparum, UniProt Q7KWJ5).
T1 sequence (Q7KWJ5 1-504): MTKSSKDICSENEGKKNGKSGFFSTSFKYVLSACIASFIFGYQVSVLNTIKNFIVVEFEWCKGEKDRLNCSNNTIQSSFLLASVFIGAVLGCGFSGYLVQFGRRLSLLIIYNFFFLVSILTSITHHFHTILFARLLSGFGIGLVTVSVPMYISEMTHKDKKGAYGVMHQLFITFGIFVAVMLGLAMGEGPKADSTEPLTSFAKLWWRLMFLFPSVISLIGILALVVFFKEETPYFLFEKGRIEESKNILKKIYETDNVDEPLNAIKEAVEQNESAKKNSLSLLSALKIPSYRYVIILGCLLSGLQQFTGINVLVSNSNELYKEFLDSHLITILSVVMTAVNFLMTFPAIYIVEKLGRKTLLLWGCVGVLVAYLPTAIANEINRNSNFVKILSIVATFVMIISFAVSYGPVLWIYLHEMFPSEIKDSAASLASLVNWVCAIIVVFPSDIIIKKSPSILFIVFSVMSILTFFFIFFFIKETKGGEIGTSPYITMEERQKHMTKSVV
Kind of assay: 2-DG uptake by HEK293 cells overexpressing PfHT. The assay is classed as cell-based. Also noted: expressed in transfected cells; host or cells: HEK293 (HEK293-FLIP, native hGLUT1 knocked down by shRNA). Particulars: for remaining activity at 0.3125 µM: 0.3125 µM compound (0.313 in Fig 1 sheet for WU-1); for remaining activity at 0.625 µM: 0.625 µM compound; for remaining activity at 1.25 µM: 1.25 µM compound; for remaining activity at 2.5 µM: 2.5 µM compound; for remaining activity at 5 µM: 5 µM compound; for remaining activity at 10 µM: 10 µM compound; for remaining activity at 20 µM: 20 µM compound; for remaining activity at 80 µM: 80 µM compound; for remaining activity at 160 µM: 160 µM compound; for remaining activity at 225 µM: 225 µM compound. The source says:
Generation of HEK293 cells overexpressing PfHT and human GLUTs 1–4 were described elsewhere. Briefly, HEK293 cells were transfected with pcDNA3.1 FLII12Pglu-7006 (Addgene), containing the fluorescence resonance energy transfer (FRET) glucose sensor (HEK293-FLIP) and PfHT, human GLUT1 (hGLUT1), hGLUT2, hGLUT3, hGLUT4, hGLUT5 or hGLUT8 using Optifect (Life Technologies) according to manufacturer’s specifications. To increase retention of GLUT8 at the plasma membrane, the dileucine sorting signal E^7E^8XXXLL was modified to R^7R^8XXXLL as described in [17]. Stable transfectants were selected for G418 and hygromycin resistance to select for FRET sensor and hexose transporter, respectively. HEK293-FLIP cells were also used to generate cells stably transfected with FLAG-tagged PfHT (FTPfHT). FLAG tag ([…]) followed by a triple glycine linker and a tobacco etch virus (TEV) protease site (ENLYFQS) followed by a triple glycine linker was added to the N-terminus of PfHT via PCR [18] using Phusion Hot Start II High-Fidelity DNA Polymerase (Fisher Scientific). Single clones were selected by comparing their abilities to transport glucose as assayed via FRET and radiolabeled hexose uptake. In all cell lines, except for HEK293 cells overexpressing hGLUT1 and hGLUT5, native hGLUT1 was knocked down using shRNA as described elsewhere. Transcript levels of the individual GLUTs expressed in each cell line are as described in [13, 15] and in S1 Fig.
Glucose uptake by P. falciparum was performed essentially as described. P. falciparum strain 3D7 was cultured in 100 mm tissue culture dishes (Techno Plastic Products) in a 2% suspension of human erythrocytes and RPMI 1640 medium until reaching > 7.5% parasitemia. Cells were pelleted via centrifugation and resuspended in RPMI 1640 medium. To determine the uptake of radiolabeled glucose into the parasite, parasites were isolated from infected erythrocytes by permeablization with saponin (0.05 w/v), followed by centrifugation, aspiration of supernatant and washing of the pellet 3X with saline solution (135 mM NaCl, 2 mM KCl, 25 mM HEPES, 0.2 mM glucose and 1 mM MgCl2; pH 7.1) to remove cellular debris. WU-1 or DMSO vehicle were added to 100 μl parasites (resuspended in saline) 5 min prior to the addition of 100 μl [^14C]2-DOG (0.2- μCi/ml final concentration). 2-DG uptake was stopped after 2 min by layering the entire reaction over 300 μl of an oil mixture (5:4 mix of dibutyl phthalate / dinonyl phthalate) in Eppendorf tubes and centrifuged at 15,850 × g for 2 mins. The ratio of the estimated intracellular concentration of radiolabel relative to the extracellular concentration were calculated as described. Uptake of radiolabeled hexose into HEK293 cells was measured in glucose-free HBSS as described previously. Briefly, cells were plated at 400,000 cells/well overnight at 37°C in 24-well plates pre-treated with PEI. After 30-min incubation at 37°C in glucose-free HBSS in the presence of vehicle or increasing concentrations of compound, 2-DG uptake was measured in glucose-free HBSS for 4 min at 37°C. Cultures were washed in ice-cold 1X PBS and lysed in 0.1% Triton X-100 in 1X PBS. Radiolabeled hexose uptake was determined by liquid scintillation counting (Ultima Gold, Thermo Fisher) and normalized to total protein per well. Uptake data are plotted as percent uptake relative to vehicle-treated cells. Kinetic analyses were performed using the indicated concentrations of substrate and WU-1, with quenching of uptake after 1 min incubation. Incubation times had been previously determined as being in the linear range of time-dependent radiolabeled hexose uptake (2 min for 2-DG uptake into freed parasites; 2 and 4 min for D-Frc and 2-DG uptake HEK cell lines, respectively). Data were fit by least squares nonlinear regression analysis using GraphPad Prism 6.0 software.

Setting [1] is: HEK293, 4 min, read-out: 2-DG uptake (percent uptake relative to vehicle), AVE, PfHT, 0.001 µM compound.
The mark [2] stands for this setting: HEK293, 4 min, read-out: 2-DG uptake (percent uptake relative to vehicle), AVE, PfHT.
Setting [3] is: HEK293, 4 min, read-out: % Inhibition of 2-DG uptake vs vehicle.
[4] abbreviates: IC50 for inhibition of 2-DG uptake, HEK293 cells overexpressing PfHT, mean/reported value.

Structures are written as SMILES. Where “and” joins values, the source holds several entries; their conditions need not be identical. Identical values can stand only once. Like-named read-outs stand apart in the source and are kept apart here.

Turning to `COc1cc(/C=C2\COC/C(=C\c3cc(OC)c(OC)c(OC)c3)C2=O)cc(OC)c1OC` [WU-5, (3E,5E)-3,5-bis[(3,4,5-trimethoxyphenyl)methylidene]oxan-4-one], the remaining activity at 0.001 µM under setting [1] came out at 100%. Also, under setting [2], the remaining activity at 0.3125 µM is 92.8%, the remaining activity at 0.625 µM is 89.8%, the remaining activity at 1.25 µM came out at 72.2% and the remaining activity at 2.5 µM was found to be 61.4%. Under setting [2], the remaining activity at 5 µM came out at 48.9%, the remaining activity at 10 µM stood at 32%, the remaining activity at 20 µM was found to be 30.9% and the remaining activity at 80 µM was determined as 32.8%. For the same molecule, under setting [2], the remaining activity at 160 µM came out at 34.5% and the remaining activity at 225 µM amounted to 35.8%. Also, the inhibition at 2.5 µM under setting [3] stood at 47%. In addition, 1.9 µM corresponded to half-maximal inhibition under setting [4] (IC50).

On to `C=C1[C@@H](C)[C@H]2[C@H](Cc3ccccc3)NC(=O)[C@]23OC(=O)/C=C/[C@H](O)CCC[C@@H](C)C/C=C/[C@H]3[C@@H]1O` [CB, cytochalasin B], for which the IC50 reads like this: (AVE IC50 (µM), PfHT, 2-DG Uptake, average of Expt 1-3) 10.9 µM; (IC50 (µM), PfHT, 2-DG Uptake, single experiments Expt 1-3) 10.3 µM and 12.6 µM and 9.78 µM; under setting [4], 10.9 ± 0.9 µM. Further, for the setting “HEK293, 4 min, read-out: 2-DG Uptake AVE, PfHT, concentration 0.001 µM, Expt 1-3”, the remaining activity at 0.001 µM amounted to 100%. The remaining activity at 0.3906 µM (HEK293, 4 min, read-out: 2-DG Uptake AVE, PfHT, concentration 0.3906 µM) came out at 95.3%. Moreover, the remaining activity at 0.7812 µM (HEK293, 4 min, read-out: 2-DG Uptake AVE, PfHT, concentration 0.7812 µM) is 96.2%. In addition, the remaining activity at 1.56 µM (HEK293, 4 min, read-out: 2-DG Uptake AVE, PfHT, concentration 1.56 µM) worked out at 90.6%. The remaining activity at 3.125 µM (HEK293, 4 min, read-out: 2-DG Uptake AVE, PfHT, concentration 3.125 µM) turned out to be 71%. Also, the remaining activity at 6.25 µM (HEK293, 4 min, read-out: 2-DG Uptake AVE, PfHT, concentration 6.25 µM) is 64.5%. For the same molecule, under “HEK293, 4 min, read-out: 2-DG Uptake AVE, PfHT, concentration 12.5 µM”, the remaining activity at 12.5 µM came out at 47.3%. The remaining activity at 25 µM (HEK293, 4 min, read-out: 2-DG Uptake AVE, PfHT, concentration 25 µM) is 30.6%. For the same molecule, where the note is “HEK293, 4 min, read-out: 2-DG Uptake AVE, PfHT, concentration 50 µM”, the remaining activity at 50 µM amounted to 22.1%. In addition, where the note is “HEK293, 4 min, read-out: 2-DG Uptake AVE, PfHT, concentration 100 µM”, the remaining activity at 100 µM amounted to 12.7%. In addition, the remaining activity at 200 µM (HEK293, 4 min, read-out: 2-DG Uptake AVE, PfHT, concentration 200 µM) came to 7.58%. In addition, for the setting “HEK293, 4 min, read-out: 2-DG Uptake AVE, PfHT, concentration 400 µM”, the remaining activity at 400 µM came out at 4.31%.

Turning to `COc1cc(/C=N/NC(=O)c2cc(-c3ccccc3)sc2N)cc(OC)c1OC` [WU-3, 2-amino-5-phenyl-N'-[(E)-(3,4,5-trimethoxyphenyl)methylidene]thiophene-3-carbohydrazide], under setting [1], the remaining activity at 0.001 µM was determined as 100%. For the same molecule, under setting [2], the remaining activity at 0.3125 µM turned out to be 109%, the remaining activity at 0.625 µM worked out at 104%, the remaining activity at 1.25 µM was found to be 103% and the remaining activity at 2.5 µM came out at 104%. Besides, under setting [2], the remaining activity at 5 µM came out at 87.6%, the remaining activity at 10 µM came out at 62%, the remaining activity at 20 µM came to 42.7% and the remaining activity at 80 µM stood at 37.1%. In addition, under setting [2], the remaining activity at 160 µM was determined as 31.1% and the remaining activity at 225 µM is 18.9%. Also, the remaining activity at 40 µM (HEK293, 4 min, read-out: 2-DG uptake (percent uptake relative to vehicle), AVE, PfHT, 40 µM compound) was 42.2%. Further, the inhibition at 10 µM under setting [3] came to 51.8%. This molecule also showed an IC50 under setting [4] of 9.2 µM.

As a reminder, the inhibition is how much of the control response was suppressed. Broadly, the IC50 is the midpoint of a concentration-inhibition curve. Low values mean inhibition by little substance, high ones a need for much substance.

(Values after article PMC6508677, “Identification of druggable small molecule antagonists of the Plasmodium falciparum hexose transporter PfHT and assessment of ligand access to the glucose permeation pathway via FLAG-mediated protein engineering” (PLoS ONE, 2019).)
